Assay results: publication PMC6934184, “Selective DNA-PKcs inhibition extends the therapeutic index of localized radiotherapy and chemotherapy” (The Journal of Clinical Investigation, 2019)

Biological target: T1, BMPR2 (Homo sapiens, UniProt Q13873)
T1 construct: purchased Thermo Fisher Scientific (Life Technologies) SelectScreen
Experiment: SelectScreen LanthaScreen
Format: binding
Details: 1 µM
Method in brief: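 SelectScreen broad panel; activity (Z'LYTE, Adapta) plus binding formats. ATP: Km app for CSF1R Z'LYTE; 10 for CAMK1 Adapta. Readout = % per kinase.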

T1 sequence (Q13873 27-1038): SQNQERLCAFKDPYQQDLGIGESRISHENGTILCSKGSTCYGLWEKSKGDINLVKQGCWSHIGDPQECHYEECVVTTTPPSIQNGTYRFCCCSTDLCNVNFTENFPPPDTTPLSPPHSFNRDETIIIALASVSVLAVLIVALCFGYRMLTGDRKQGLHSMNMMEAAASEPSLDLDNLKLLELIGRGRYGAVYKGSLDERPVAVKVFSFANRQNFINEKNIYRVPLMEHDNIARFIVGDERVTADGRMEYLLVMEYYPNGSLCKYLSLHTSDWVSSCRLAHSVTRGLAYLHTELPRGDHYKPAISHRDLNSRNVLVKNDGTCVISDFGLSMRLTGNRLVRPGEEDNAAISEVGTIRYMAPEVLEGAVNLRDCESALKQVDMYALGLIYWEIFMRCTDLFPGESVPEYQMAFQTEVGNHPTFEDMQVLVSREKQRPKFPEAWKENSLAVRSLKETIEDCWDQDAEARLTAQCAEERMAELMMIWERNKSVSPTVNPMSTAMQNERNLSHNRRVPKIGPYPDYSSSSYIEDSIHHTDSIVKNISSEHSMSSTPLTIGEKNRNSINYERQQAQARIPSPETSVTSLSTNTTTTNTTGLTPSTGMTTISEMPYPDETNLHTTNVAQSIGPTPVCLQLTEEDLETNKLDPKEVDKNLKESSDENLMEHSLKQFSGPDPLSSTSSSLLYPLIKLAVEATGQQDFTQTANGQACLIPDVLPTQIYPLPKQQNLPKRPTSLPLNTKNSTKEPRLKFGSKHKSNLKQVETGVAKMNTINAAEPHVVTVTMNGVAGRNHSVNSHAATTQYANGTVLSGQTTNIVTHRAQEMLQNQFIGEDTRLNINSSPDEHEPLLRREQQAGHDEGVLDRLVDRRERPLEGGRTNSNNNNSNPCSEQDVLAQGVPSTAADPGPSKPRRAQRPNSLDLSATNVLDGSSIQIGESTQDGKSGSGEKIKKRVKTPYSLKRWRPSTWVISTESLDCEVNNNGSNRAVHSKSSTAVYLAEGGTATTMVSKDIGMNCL

CN(C(=O)CN1CCOCC1)c1ccc2sc3c(-c4cccc5c(=O)cc(N6CC7CCC(C6)O7)oc45)cccc3c2c1 [NU5455]
% displacement: -2.5%
